Where no end group is shown, it is not given here. [ ]: non-standard residue; d: D form. pGlu = O=C1CC[C@@H](C(=O)O)N1
System: endothelial cellular receptors for Factor IX (cultured bovine aortic endothelial cells)
Assay: Competitive binding of [125I]-Factor IX to cultured bovine aortic endothelial cells
Settings: up to millimolar amounts of peptide
Description: The purified peptides were tested for their ability to block the binding of bovine Factor IX and IXa to cultured bovine aortic endothelial cells. Bovine Factor IX and IXa for these studies were prepared and radioiodinated (using Na^125 I and the solid state lactoperoxidase technique) using methods described by Stern, et al. (J. Biol. Chem. 260, pp. 6717-6722 [1985]). Bovine aortic endothelial cells were obtained from the aortae of newborn calves as described by Stern, et al. (Proc. Natl. Acad. Sci. U.S.A., 80, pp. 4119-4123 [1983]). These endothelial cells were grown to confluence (1.3×10^5 cells/cm^2) in culture dishes. Binding assays were carried out by incubating either ^125 I-Factor IX or ^125 I-Factor IXa with endothelial cell monolayers in the presence of varying concentrations of one of the peptides. The buffer used in these experiments was Minimal Essential Medium containing 0.5 mg/ml transferring, and the incubation time was 4-5 hours at 4° C. At the end of the incubation period, the cultures were washed to remove unbound material. Then, specifically bound [^125 I]-Factor IX or [^125 I]-Factor IXa was eluted during exposure to EDTA-containing buffer as described by Stern, et al. (Proc. Natl. Acad. Sci. U.S.A., 80, pp. 4119-4123 [1983].

| Substance | inhibition of [125I]-Factor IX endothelial cell binding |
| --- | --- |
| DRVYVHPSL [Angiotensin I, control peptide for specificity] | no inhibition |
| PCA-Gly-Val-Asn-Glu-Glu-Gly-Phe-Phe-Ser-Ala-Arg ([pGlu]GVNEEGFFSAR) [fibrinopeptide B, control peptide for specificity] | no inhibition |

— patent publication US4885277A, “Anticoagulant therapy” (Oklahoma Medical Research Foundation, priority 1987, dated 1989)
